Results taken from PubChem BioAssay (NCI).
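In this assay, cells in 96-well plates receive the compound at five concentrations for 48 hours. Endpoints are linearly interpolated between the surrounding concentrations. TGI denotes the concentration required for complete inhibition of growth.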

Legend:
Experiment in all cases: NCI tumour cell line growth inhibition, 48 h
SN12C renal = tested on: SN12C renal
MCF7 breast = tested on: MCF7 breast
DMS 114 small cell lung = tested on: DMS 114 small cell lung
SK-MEL-2 melanoma = tested on: SK-MEL-2 melanoma
SK-MEL-5 melanoma = tested on: SK-MEL-5 melanoma
SN12K1 renal = tested on: SN12K1 renal
KM12 colon = tested on: KM12 colon
SF-539 CNS = tested on: SF-539 CNS
MOLT-4 leukemia = tested on: MOLT-4 leukemia
MALME-3M melanoma = tested on: MALME-3M melanoma
NCI-H23 lung = tested on: NCI-H23 lung
LOX IMVI melanoma = tested on: LOX IMVI melanoma
SF-295 CNS = tested on: SF-295 CNS
NCI-H522 lung = tested on: NCI-H522 lung
EKVX NSCLC = tested on: EKVX NSCLC
OVCAR-3 ovarian = tested on: OVCAR-3 ovarian
OVCAR-4 ovarian = tested on: OVCAR-4 ovarian
HL-60(TB) leukemia = tested on: HL-60(TB) leukemia
M19-MEL melanoma = tested on: M19-MEL melanoma
DMS 273 small cell lung = tested on: DMS 273 small cell lung
UACC-62 melanoma = tested on: UACC-62 melanoma
XF 498 CNS = tested on: XF 498 CNS
IGROV1 ovarian = tested on: IGROV1 ovarian
HCT-15 colon = tested on: HCT-15 colon
UO-31 renal = tested on: UO-31 renal
SK-MEL-28 melanoma = tested on: SK-MEL-28 melanoma
NCI-H226 lung = tested on: NCI-H226 lung
HCT-116 colon = tested on: HCT-116 colon
SNB-19 CNS = tested on: SNB-19 CNS
HCC-2998 colon = tested on: HCC-2998 colon
HT29 colon = tested on: HT29 colon
HOP-18 NSCLC = tested on: HOP-18 NSCLC
RPMI-8226 leukemia = tested on: RPMI-8226 leukemia
A549 NSCLC = tested on: A549 NSCLC
OVCAR-5 ovarian = tested on: OVCAR-5 ovarian
SNB-75 CNS = tested on: SNB-75 CNS
SK-OV-3 ovarian = tested on: SK-OV-3 ovarian
KM20L2 colon = tested on: KM20L2 colon
NCI-H460 lung = tested on: NCI-H460 lung
U251 CNS = tested on: U251 CNS
SF-268 CNS = tested on: SF-268 CNS
A498 renal = tested on: A498 renal
NCI/ADR-RES ovarian = tested on: NCI/ADR-RES ovarian
P388 leukemia = tested on: P388 leukemia
RXF 393 renal = tested on: RXF 393 renal
HOP-62 NSCLC = tested on: HOP-62 NSCLC
COLO 205 colon = tested on: COLO 205 colon
SW-620 colon = tested on: SW-620 colon
CCRF-CEM leukemia = tested on: CCRF-CEM leukemia
DLD-1 colon = tested on: DLD-1 colon
OVCAR-8 ovarian = tested on: OVCAR-8 ovarian
SNB-78 CNS = tested on: SNB-78 CNS
K-562 leukemia = tested on: K-562 leukemia
HOP-92 NSCLC = tested on: HOP-92 NSCLC
P388/ADR leukemia = tested on: P388/ADR leukemia
UACC-257 melanoma = tested on: UACC-257 melanoma
CAKI-1 renal = tested on: CAKI-1 renal

Q: `c1ccc(C(c2ccccc2)[P+](c2ccccc2)(c2ccccc2)c2ccccc2)cc1` was tested. Which TGI (SN12C renal) did it give?
A: Its TGI is 11.7 µM.

Q: And the TGI (MCF7 breast)?
A: Its TGI is 11.9 µM.

Q: And the TGI (DMS 114 small cell lung)?
A: Its TGI is 2.73 µM.

Q: What about the TGI (SK-MEL-2 melanoma) of the same compound?
A: Its TGI is 1.25 µM.

Q: And the TGI (SK-MEL-5 melanoma)?
A: The TGI was 1.15 µM.

Q: And the TGI (SN12K1 renal)?
A: Its TGI is 12.3 µM.

Q: And the TGI (KM12 colon)?
A: Its TGI is 2.7 µM.

Q: And the TGI (SF-539 CNS)?
A: Its TGI is 6.31 µM.

Q: What about the TGI (MOLT-4 leukemia) of the same compound?
A: Its TGI is 4.06 µM.

Q: And the TGI (MALME-3M melanoma)?
A: The TGI was 14.7 µM.

Q: And the TGI (NCI-H23 lung)?
A: Its TGI is 5.05 µM.

Q: And the TGI (LOX IMVI melanoma)?
A: Its TGI is 1.52 µM.

Q: And the TGI (SF-295 CNS)?
A: The TGI was 7.27 µM.

Q: And the TGI (NCI-H522 lung)?
A: The TGI was 1.14 µM.

Q: What about the TGI (EKVX NSCLC) of the same compound?
A: Its TGI is 50.4 µM.

Q: And the TGI (OVCAR-3 ovarian)?
A: Its TGI is 3 µM.

Q: And the TGI (OVCAR-4 ovarian)?
A: The TGI was 10 µM.

Q: And the TGI (HL-60(TB) leukemia)?
A: Its TGI is 4.05 µM.

Q: And the TGI (M19-MEL melanoma)?
A: Its TGI is 9.69 µM.

Q: And the TGI (DMS 273 small cell lung)?
A: Its TGI is 2.17 µM.

Q: What about the TGI (UACC-62 melanoma) of the same compound?
A: The TGI was 3.56 µM.

Q: And the TGI (XF 498 CNS)?
A: Its TGI is 0.737 µM.

Q: And the TGI (IGROV1 ovarian)?
A: Its TGI is 8.64 µM.

Q: And the TGI (HCT-15 colon)?
A: The TGI was 17.9 µM.

Q: And the TGI (UO-31 renal)?
A: The TGI was 7.95 µM.

Q: And the TGI (SK-MEL-28 melanoma)?
A: The TGI was 5.18 µM.

Q: What about the TGI (NCI-H226 lung) of the same compound?
A: Its TGI is 6.03 µM.

Q: What about the TGI (HCT-116 colon) of the same compound?
A: Its TGI is 5.02 µM.

Q: And the TGI (SNB-19 CNS)?
A: Its TGI is 10 µM.

Q: What about the TGI (HCC-2998 colon) of the same compound?
A: Its TGI is 11.7 µM.

Q: What about the TGI (HT29 colon) of the same compound?
A: Its TGI is 6.73 µM.

Q: And the TGI (HOP-18 NSCLC)?
A: The TGI was 2.74 µM.

Q: And the TGI (RPMI-8226 leukemia)?
A: The TGI was 1.28 µM.

Q: And the TGI (A549 NSCLC)?
A: The TGI was 14.6 µM.

Q: And the TGI (OVCAR-5 ovarian)?
A: The TGI was 13.3 µM.

Q: And the TGI (SNB-75 CNS)?
A: Its TGI is 5.17 µM.

Q: And the TGI (SK-OV-3 ovarian)?
A: Its TGI is 2.68 µM.

Q: What about the TGI (KM20L2 colon) of the same compound?
A: The TGI was 11.8 µM.

Q: What about the TGI (NCI-H460 lung) of the same compound?
A: The TGI was 11.5 µM.

Q: And the TGI (U251 CNS)?
A: Its TGI is 12.1 µM.

Q: What about the TGI (SF-268 CNS) of the same compound?
A: Its TGI is 15.3 µM.

Q: What about the TGI (A498 renal) of the same compound?
A: Its TGI is 8.62 µM.

Q: What about the TGI (NCI/ADR-RES ovarian) of the same compound?
A: Its TGI is over 100 µM.

Q: What about the TGI (P388 leukemia) of the same compound?
A: The TGI was 1.89 µM.

Q: What about the TGI (RXF 393 renal) of the same compound?
A: The TGI was 10.6 µM.

Q: What about the TGI (HOP-62 NSCLC) of the same compound?
A: Its TGI is 6.63 µM.

Q: And the TGI (COLO 205 colon)?
A: The TGI was 1.2 µM.

Q: And the TGI (SW-620 colon)?
A: Its TGI is 13.2 µM.

Q: What about the TGI (CCRF-CEM leukemia) of the same compound?
A: The TGI was 14.6 µM.

Q: What about the TGI (DLD-1 colon) of the same compound?
A: Its TGI is 14.2 µM.

Q: What about the TGI (OVCAR-8 ovarian) of the same compound?
A: Its TGI is 13.5 µM.

Q: What about the TGI (SNB-78 CNS) of the same compound?
A: The TGI was 12.9 µM.

Q: What about the TGI (K-562 leukemia) of the same compound?
A: Its TGI is 10.1 µM.

Q: What about the TGI (HOP-92 NSCLC) of the same compound?
A: Its TGI is 2.79 µM.

Q: What about the TGI (P388/ADR leukemia) of the same compound?
A: Its TGI is 31.8 µM.

Q: What about the TGI (UACC-257 melanoma) of the same compound?
A: The TGI was 3.17 µM.

Q: What about the TGI (CAKI-1 renal) of the same compound?
A: Its TGI is 8.47 µM.
